Target: truncated PI3Kα (p110α/iSH2 p85α), PI3KA_Act (Homo sapiens (Human), UniProt P42336)
Assay: PI3Kα biochemical kinase assay, fluorescence polarization format (PI3KA_Act)
Details: 0.5 nM p110α/iSH2 p85, 1 mM ATP, 30 μM PIP2, 15-min preincubation; Morrison equation fit; read-out: PI3KA_Act Ki
Procedure, shortened: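 Enzyme: His-tagged p110α/p85α niSH2 complex from Sf21 baculovirus expression, IMAC-purified, tag cleaved, then SEC. Reactions ran 30 min at room temperature, stopped with 10 mM EDTA pH 8 (final), and were read by fluorescence polarization.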

truncated PI3Kα (p110α/iSH2 p85α), PI3KA_Act, sequence (P42336 whole entry, the tested form may be a part): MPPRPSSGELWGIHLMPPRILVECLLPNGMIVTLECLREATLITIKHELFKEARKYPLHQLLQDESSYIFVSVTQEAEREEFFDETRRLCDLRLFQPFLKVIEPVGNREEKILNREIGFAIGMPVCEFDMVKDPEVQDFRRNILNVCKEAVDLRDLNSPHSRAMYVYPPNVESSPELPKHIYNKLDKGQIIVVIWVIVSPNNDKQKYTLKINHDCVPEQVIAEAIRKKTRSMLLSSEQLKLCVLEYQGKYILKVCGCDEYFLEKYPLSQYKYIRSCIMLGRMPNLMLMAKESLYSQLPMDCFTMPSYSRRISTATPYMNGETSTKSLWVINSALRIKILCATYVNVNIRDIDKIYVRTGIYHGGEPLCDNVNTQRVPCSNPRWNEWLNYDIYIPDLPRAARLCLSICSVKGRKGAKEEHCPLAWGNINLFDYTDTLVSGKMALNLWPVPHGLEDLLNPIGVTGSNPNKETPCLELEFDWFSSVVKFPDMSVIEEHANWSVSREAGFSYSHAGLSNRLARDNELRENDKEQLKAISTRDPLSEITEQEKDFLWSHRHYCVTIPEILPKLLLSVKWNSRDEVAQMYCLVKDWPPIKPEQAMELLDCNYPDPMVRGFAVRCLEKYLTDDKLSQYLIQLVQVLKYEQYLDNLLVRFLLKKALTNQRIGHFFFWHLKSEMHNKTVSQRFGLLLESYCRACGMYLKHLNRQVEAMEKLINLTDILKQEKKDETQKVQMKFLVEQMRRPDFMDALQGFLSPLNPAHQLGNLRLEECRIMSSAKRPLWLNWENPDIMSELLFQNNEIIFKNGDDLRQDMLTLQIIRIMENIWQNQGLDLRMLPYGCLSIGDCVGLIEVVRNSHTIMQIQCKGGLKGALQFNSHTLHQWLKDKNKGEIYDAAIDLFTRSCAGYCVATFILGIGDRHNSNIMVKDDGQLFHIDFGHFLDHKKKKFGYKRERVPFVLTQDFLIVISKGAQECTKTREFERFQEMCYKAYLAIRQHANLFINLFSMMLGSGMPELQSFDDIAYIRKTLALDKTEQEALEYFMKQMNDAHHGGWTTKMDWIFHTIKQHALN

Ki | SMILES
0.15 nM | CCOC(=O)N1CC[C@](CO)(Nc2nc(N3CCOCC3)nc(-c3cnc(N)nc3)c2F)C1 [Example 69, ethyl (3S)-3-{[2′-amino-5-fluoro-2-(morpholin-4-yl)-4,5′-bipyrimidin-6-yl]amino}-3-(hydroxymethyl)pyrrolidine-1-carboxylate]
0.031 nM | CC(C)OC(=O)N1CC[C@](CO)(Nc2nc(N3CCOCC3)nc(-c3cnc(N)nc3)c2F)C1 [Example 70, propan-2-yl (3S)-3-{[2′-amino-5-fluoro-2-(morpholin-4-yl)-4,5′-bipyrimidin-6-yl]amino}-3-(hydroxymethyl)pyrrolidine-1-carboxylate]
9.47 nM | Nc1ncc(-c2cc(N[C@@]3(CO)CCN(CC4CC4)C3)nc(N3CCOCC3)n2)cn1 [Example 71, [(3S)-3-{[2′-amino-2-(morpholin-4-yl)-4,5′-bipyrimidin-6-yl]amino}-1-(cyclopropylmethyl)pyrrolidin-3-yl]methanol]
0.746 nM | Cn1ccnc1C(=O)N1CC[C@](CO)(Nc2cc(-c3cnc(N)nc3)nc(N3CCOCC3)n2)C1 [Example 73, [(3S)-3-{[2′-amino-2-(morpholin-4-yl)-4,5′-bipyrimidin-6-yl]amino}-3-(hydroxymethyl)pyrrolidin-1-yl](1-methyl-1H-imidazol-2-yl)methanone]
1.82 nM | CN1CCC(N2CC[C@](CO)(Nc3cc(-c4cnc(N)nc4)nc(N4CCOCC4)n3)C2)C1=O (stereo partly drawn) [Example 76, (3S)-3-{[2′-amino-2-(morpholin-4-yl)-4,5′-bipyrimidin-6-yl]amino}-3-(hydroxymethyl)-1′-methyl-1,3′-bipyrrolidin-2′-one]
< 0.018 nM | CCCOC(=O)N1CC[C@](CO)(Nc2cc(-c3cnc(N)nc3)nc(N3CCOCC3)n2)C1 [Example 77, propyl (3S)-3-{[2′-amino-2-(morpholin-4-yl)-4,5′-bipyrimidin-6-yl]amino}-3-(hydroxymethyl)pyrrolidine-1-carboxylate]
0.267 nM | Nc1ncc(-c2cc(N[C@@]3(CO)CCN(C(=O)N4CCCC4)C3)nc(N3CCOCC3)n2)cn1 [Example 78, [(3S)-3-{[2′-amino-2-(morpholin-4-yl)-4,5′-bipyrimidin-6-yl]amino}-3-(hydroxymethyl)pyrrolidin-1-yl](pyrrolidin-1-yl)methanone]
1.94 nM | Nc1ncc(-c2cc(N[C@@]3(CO)CCN(C4CCNC4=O)C3)nc(N3CCOCC3)n2)cn1 (stereo partly drawn) [Example 80, (3S)-3-{[2′-amino-2-(morpholin-4-yl)-4,5′-bipyrimidin-6-yl]amino}-3-(hydroxymethyl)-1,3′-bipyrrolidin-2′-one]
0.31 nM | Cn1cc(C(=O)N2CC[C@](CO)(Nc3cc(-c4cnc(N)nc4)nc(N4CCOCC4)n3)C2)cn1 [Example 81, [(3S)-3-{[2′-amino-2-(morpholin-4-yl)-4,5′-bipyrimidin-6-yl]amino}-3-(hydroxymethyl)pyrrolidin-1-yl](1-methyl-1H-pyrazol-4-yl)methanone]
0.027 nM | CCOC(=O)N1CC[C@](CO)(Nc2nc(-c3cnc(N)nc3)nc(N3CCOCC3)n2)C1 [Example 82, ethyl (3S)-3-{[4-(2-aminopyrimidin-5-yl)-6-(morpholin-4-yl)-1,3,5-triazin-2-yl]amino}-3-(hydroxymethyl)pyrrolidine-1-carboxylate]
0.215 nM | CC(C)OC(=O)N1CC[C@](CO)(Nc2nc(-c3cnc(N)nc3)nc(N3CCOCC3)n2)C1 [Example 83, propan-2-yl (3S)-3-{[4-(2-aminopyrimidin-5-yl)-6-(morpholin-4-yl)-1,3,5-triazin-2-yl]amino}-3-(hydroxymethyl)pyrrolidine-1-carboxylate]
0.445 nM | CN1CCCC(N2CC[C@](CO)(Nc3cc(-c4cnc(N)nc4)nc(N4CCOCC4)n3)C2)C1=O (stereo partly drawn) [Example 84, 3-[(3S)-3-{[2′-amino-2-(morpholin-4-yl)-4,5′-bipyrimidin-6-yl]amino}-3-(hydroxymethyl)pyrrolidin-1-yl]-1-methylpiperidin-2-one]
0.067 nM | Nc1ncc(-c2cc(N[C@@]3(CO)CCN(c4ccccn4)C3)nc(N3CCOCC3)n2)cn1 [Example 85, [(3S)-3-{[2′-amino-2-(morpholin-4-yl)-4,5′-bipyrimidin-6-yl]amino}-1-(pyridin-2-yl)pyrrolidin-3-yl]methanol]
0.026 nM | Nc1ncc(-c2cc(N[C@@]3(CO)CCN(C(=O)c4ncc[nH]4)C3)nc(N3CCOCC3)n2)cn1 [Example 86, [(3S)-3-{[2′-amino-2-(morpholin-4-yl)-4,5′-bipyrimidin-6-yl]amino}-3-(hydroxymethyl)pyrrolidin-1-yl](1H-imidazol-2-yl)methanone]
0.085 nM | Nc1ncc(-c2cc(N[C@@]3(CO)CCN(C(=O)c4ncccn4)C3)nc(N3CCOCC3)n2)cn1 [Example 87, [(3S)-3-{[2′-amino-2-(morpholin-4-yl)-4,5′-bipyrimidin-6-yl]amino}-3-(hydroxymethyl)pyrrolidin-1-yl](pyrimidin-2-yl)methanone]
0.682 nM | Nc1ncc(-c2cc(N[C@@]3(CO)CCN(C4CCCNC4=O)C3)nc(N3CCOCC3)n2)cn1 (stereo partly drawn) [Example 88, 3-[(3S)-3-{[2′-amino-2-(morpholin-4-yl)-4,5′-bipyrimidin-6-yl]amino}-3-(hydroxymethyl)pyrrolidin-1-yl]piperidin-2-one]
< 0.018 nM | Nc1ncc(-c2cc(N[C@@]3(CO)CCN(C(=O)N4CCC4)C3)nc(N3CCOCC3)n2)cn1 [Example 89, [(3S)-3-{[2′-amino-2-(morpholin-4-yl)-4,5′-bipyrimidin-6-yl]amino}-3-(hydroxymethyl)pyrrolidin-1-yl](azetidin-1-yl)methanone]
< 0.018 nM | Nc1ncc(-c2cc(N[C@@]3(CO)CCN(C(=O)c4cn[nH]c4)C3)nc(N3CCOCC3)n2)cn1 [Example 90, [(3S)-3-{[2′-amino-2-(morpholin-4-yl)-4,5′-bipyrimidin-6-yl]amino}-3-(hydroxymethyl)pyrrolidin-1-yl](1H-pyrazol-4-yl)methanone]
< 0.018 nM | Nc1ncc(-c2cc(N[C@@]3(CO)CCN(C(=O)C4CC4)C3)nc(N3CCOCC3)n2)cn1 [Example 92, [(3S)-3-{[2′-amino-2-(morpholin-4-yl)-4,5′-bipyrimidin-6-yl]amino}-3-(hydroxymethyl)pyrrolidin-1-yl](cyclopropyl)methanone]
< 0.018 nM | Nc1ncc(-c2cc(N[C@@]3(CO)CCN(C(=O)OC4CC4)C3)nc(N3CCOCC3)n2)cn1 [Example 93, cyclopropyl (3S)-3-{[2′-amino-2-(morpholin-4-yl)-4,5′-bipyrimidin-6-yl]amino}-3-(hydroxymethyl)pyrrolidine-1-carboxylate]
0.631 nM | CC[C@@]1(Nc2cc(-c3cnc(N)nc3)nc(N3CCOCC3)n2)CCN(C(=O)C2(F)CC2)C1 [Example 94, [(3R)-3-{[2′-amino-2-(morpholin-4-yl)-4,5′-bipyrimidin-6-yl]amino}-3-ethylpyrrolidin-1-yl](1-fluorocyclopropyl)methanone]
0.412 nM | CCOC(=O)N1CC[C@@](CC)(Nc2cc(-c3cnc(N)nc3)nc(N3CCOCC3)n2)C1 [Example 95, ethyl (3R)-3-{[2′-amino-2-(morpholin-4-yl)-4,5′-bipyrimidin-6-yl]amino}-3-ethylpyrrolidine-1-carboxylate]
< 0.018 nM | Nc1ncc(-c2cc(N[C@@]3(CO)CCN(C(=O)C4(F)CNC4)C3)nc(N3CCOCC3)n2)cn1 [Example 97, [(3S)-3-{[2′-amino-2-(morpholin-4-yl)-4,5′-bipyrimidin-6-yl]amino}-3-(hydroxymethyl)pyrrolidin-1-yl](3-fluoroazetidin-3-yl)methanone]
0.027 nM | Nc1ncc(-c2nc(N[C@@]3(CO)CCN(C(=O)OCC(F)F)C3)nc(N3CCOCC3)n2)cn1 [Example 99, 2,2-difluoroethyl (3S)-3-{[4-(2-aminopyrimidin-5-yl)-6-(morpholin-4-yl)-1,3,5-triazin-2-yl]amino}-3-(hydroxymethyl)pyrrolidine-1-carboxylate]
1.48 nM | CN(C)C(=O)CN1CC[C@](CO)(Nc2cc(-c3cnc(N)nc3)nc(N3CCOCC3)n2)C1 [Example 100, 2-[(3S)-3-{[2′-amino-2-(morpholin-4-yl)-4,5′-bipyrimidin-6-yl]amino}-3-(hydroxymethyl)pyrrolidin-1-yl]-N,N-dimethylacetamide]
0.068 nM | Nc1ncc(-c2nc(N3CCOCC3)nc(N[C@@]3(CO)CCN(C(=O)OC4CC4)C3)c2F)cn1 [Example 101, cyclopropyl (3S)-3-{[2′-amino-5-fluoro-2-(morpholin-4-yl)-4,5′-bipyrimidin-6-yl]amino}-3-(hydroxymethyl)pyrrolidine-1-carboxylate]
< 0.018 nM | C[C@H]1COCCN1c1nc(N[C@@]2(CO)CCN(C(=O)OC3CC3)C2)cc(-c2cnc(N)nc2)n1 [Example 102, cyclopropyl (3S)-3-({2′-amino-2-[(3S)-3-methylmorpholin-4-yl]-4,5′-bipyrimidin-6-yl}amino)-3-(hydroxymethyl)pyrrolidine-1-carboxylate]
0.107 nM | Nc1ncc(-c2nc(N[C@@]3(CO)CCN(C(=O)OC4CC4)C3)nc(N3CCOCC3)n2)cn1 [Example 103, cyclopropyl (3S)-3-{[4-(2-aminopyrimidin-5-yl)-6-(morpholin-4-yl)-1,3,5-triazin-2-yl]amino}-3-(hydroxymethyl)pyrrolidine-1-carboxylate]
0.674 nM | C[C@H]1COCCN1c1nc(N[C@@]2(CO)CCN(C(=O)C3COC3)C2)cc(-c2cnc(N)nc2)n1 [Example 104, [(3S)-3-({2′-amino-2-[(3S)-3-methylmorpholin-4-yl]-4,5′-bipyrimidin-6-yl}amino)-3-(hydroxymethyl)pyrrolidin-1-yl](oxetan-3-yl)methanone]

SMILES | Ki
Nc1ncc(-c2cc(N[C@@]3(CO)CCN(C(=O)OCC(F)F)C3)nc(N3CCOCC3)n2)cn1 [Example 79, 2,2-difluoroethyl (3S)-3-{[2′-amino-2-(morpholin-4-yl)-4,5′-bipyrimidin-6-yl]amino}-3-(hydroxymethyl)pyrrolidine-1-carboxylate] | 0.021 nM
